Structures are written as SMILES. Numbered stars: 1 amine (or outer) side, 2 acyl side, 3 side chain; on linkers, the order of the positions; unused ones are H or OH. Bridge positions count the residues as written; N and C are the ends. Square brackets hold non-standard residues; d marks the D form. Peptide text beside a SMILES is read from it. I, II: the chains in the order shown. Phe(4-COOH) = N[C@@H](Cc1ccc(C(=O)O)cc1)C(=O)O; Phe(4-tBu) = CC(C)(C)c1ccc(C[C@H](N)C(=O)O)cc1; Bip = N[C@@H](Cc1ccc(-c2ccccc2)cc1)C(=O)O; 1Nal = N[C@@H](Cc1cccc2ccccc12)C(=O)O; Diglycolyl = O=C(COCC(=O)[*:2])[*:1]; NMeR = CN[C@@H](CCCNC(=N)N)C(=O)O; β3hE = N[C@@H](CCC(=O)O)CC(=O)O; NMeK = CN[C@@H](CCCCN)C(=O)O; Pen = CC(C)(S)[C@H](N)C(=O)O; dNMeK = CN[C@H](CCCCN)C(=O)O

One assay deals with T1, α4β7 (Mus musculus, UniProt P26011+Q00651).
T1 construct: host or cells: TK1 mouse T cells
T1 sequence (Q00651 34-1039 limits assumed): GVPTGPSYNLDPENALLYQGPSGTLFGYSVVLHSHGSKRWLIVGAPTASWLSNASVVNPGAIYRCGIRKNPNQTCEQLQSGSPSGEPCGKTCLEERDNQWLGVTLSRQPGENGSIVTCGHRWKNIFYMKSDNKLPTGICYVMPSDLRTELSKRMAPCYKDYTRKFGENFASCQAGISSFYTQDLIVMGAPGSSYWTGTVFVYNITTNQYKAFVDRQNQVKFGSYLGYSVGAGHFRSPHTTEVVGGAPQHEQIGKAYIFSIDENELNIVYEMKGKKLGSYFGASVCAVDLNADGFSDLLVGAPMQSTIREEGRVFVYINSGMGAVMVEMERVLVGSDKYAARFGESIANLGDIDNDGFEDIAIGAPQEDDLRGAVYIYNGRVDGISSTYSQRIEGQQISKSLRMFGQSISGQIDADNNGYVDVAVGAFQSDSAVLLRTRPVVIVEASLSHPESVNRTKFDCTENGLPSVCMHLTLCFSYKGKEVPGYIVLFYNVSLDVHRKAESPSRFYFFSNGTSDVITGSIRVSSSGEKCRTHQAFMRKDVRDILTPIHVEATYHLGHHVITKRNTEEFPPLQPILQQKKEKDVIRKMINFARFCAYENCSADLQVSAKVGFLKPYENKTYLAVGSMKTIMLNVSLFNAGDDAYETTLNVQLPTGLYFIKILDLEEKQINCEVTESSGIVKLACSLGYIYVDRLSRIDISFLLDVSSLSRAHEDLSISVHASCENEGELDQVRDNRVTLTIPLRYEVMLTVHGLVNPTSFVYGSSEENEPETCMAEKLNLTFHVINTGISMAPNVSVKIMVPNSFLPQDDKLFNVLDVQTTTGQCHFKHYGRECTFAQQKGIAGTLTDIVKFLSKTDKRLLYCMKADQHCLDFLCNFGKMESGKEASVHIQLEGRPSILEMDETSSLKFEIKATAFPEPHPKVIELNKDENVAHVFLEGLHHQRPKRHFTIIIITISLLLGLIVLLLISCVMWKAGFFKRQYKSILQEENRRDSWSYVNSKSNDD
T1 sequence (P26011 20-806): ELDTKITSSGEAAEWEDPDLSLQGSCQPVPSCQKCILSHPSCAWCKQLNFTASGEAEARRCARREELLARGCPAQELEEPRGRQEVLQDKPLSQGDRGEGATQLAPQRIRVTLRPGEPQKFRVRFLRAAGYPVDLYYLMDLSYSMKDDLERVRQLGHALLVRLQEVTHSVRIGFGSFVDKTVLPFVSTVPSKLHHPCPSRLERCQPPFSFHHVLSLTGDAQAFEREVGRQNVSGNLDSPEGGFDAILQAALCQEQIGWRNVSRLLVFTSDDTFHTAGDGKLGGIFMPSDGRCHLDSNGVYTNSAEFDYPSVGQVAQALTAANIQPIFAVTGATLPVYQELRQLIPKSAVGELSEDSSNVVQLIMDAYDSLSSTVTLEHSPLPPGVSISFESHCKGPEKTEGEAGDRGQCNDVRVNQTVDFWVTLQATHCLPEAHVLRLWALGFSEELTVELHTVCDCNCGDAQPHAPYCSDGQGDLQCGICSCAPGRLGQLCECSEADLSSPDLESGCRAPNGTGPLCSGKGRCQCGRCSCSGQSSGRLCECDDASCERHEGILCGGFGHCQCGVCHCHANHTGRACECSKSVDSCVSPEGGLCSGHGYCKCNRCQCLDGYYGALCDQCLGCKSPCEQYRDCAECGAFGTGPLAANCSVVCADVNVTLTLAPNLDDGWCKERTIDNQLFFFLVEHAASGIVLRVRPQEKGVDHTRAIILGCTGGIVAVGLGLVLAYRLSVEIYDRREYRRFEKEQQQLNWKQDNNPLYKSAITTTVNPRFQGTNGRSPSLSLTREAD
Briefly: α4β7 Cell Adhesion Assay (Mouse), TK1 cells. The note with it: Table 3-B, Potency (α4β7); range classes; read-out: α4β7 cell(MU) IC50. The class given is cell-based. As to the method: TK1 cells (ATCC # ATCC-CRL-2396) were cultured in RPMI 1640 with 2 mM L-glutamine adjusted to contain 1.5 g/L sodium bicarbonate, 4.5 g/L glucose, 10 mM HEPES, and 1.0 mM sodium pyruvate (ATCC#30-2001) and supplemented with 0.1 mM non-essential amino acids, (ATCC #30-2116) 0.05 mM 2-mercaptoethanol (Invitrogen #21985) and 10% serum (Fetal Bovine Serum, Invitrogen #16140-071), and Penicillin-Streptomycin (Invitrogen #15140-122) at 100 units of penicillin and 100 μg of streptomycin per ml. The cells were washed two times in DMEM medium (ATCC #30-2002) supplemented with 0.1% BSA, 10 mM HEPES pH 7 and 1 mM MnCl2. The cells were re-suspended in supplemented DMEM medium at a density of 4×10^6 cells/ml.
A Nunc MaxiSorp plate was coated with Recombinant human MAdCAM-1 Fc Chimera (R&D #6065-MC) at 200 ng per well in 100 μl per well in 1×PBS and incubated at 4° C. overnight. The solution was then removed by shaking, blocked with 250 ul per well PBS containing 1% BSA, and incubated at 37° C. for 1 hr. The solution was removed by shaking. DATK 32 (anti-mouse α4β7) and peptides were diluted by serial dilution in a final volume of 50 ul per well (2× concentration). To each well, 50 ul of cells (200,000 cells) are added and the plate is incubated at 37° C., 5% CO2 for 30-45 min to allow cell adhesion. The plate was manually washed three times with supplemented DMEM, 100 ul per wash. After the final wash, 100 ul/well of supplemented DMEM and […] of MTT reagent (ATTC cat#30-1010K) was added to each well. Wells were incubated at 37° C. with 5% CO2 for 2-3 hrs until purple precipitate was visible. 100 μl of Detergent Reagent (ATTC cat#30-1010K) was added to each well. The plate was then wrapped with Para film to prevent evaporation, and left overnight at room temperature in the dark. The plate was shaken for 5 min and the absorbance at 570 nm was measured. To calculate the dose response, the absorbance value of control wells not containing cells was subtracted from each test well.
What is called IC50 is the concentration that inhibits the measured activity by half. With `CC(=O)N[C@@H]1C(=O)N(C)[C@@H](CCCNC(=N)N)C(=O)N[C@@H](CO)C(=O)N[C@@H](CC(=O)O)C(=O)N[C@@H]([C@@H](C)O)C(=O)N[C@@H](CC(C)C)C(=O)N[C@H](C(=O)N[C@@H](Cc2cccc3ccccc23)C(=O)N[C@@H](CCC(=O)O)C(=O)N(C)[C@H](CCCCNC(=O)COCC(=O)NCCCC[C@H](C(N)=O)N(C)C(=O)[C@H](CCC(=O)O)NC(=O)[C@H](Cc2cccc3ccccc23)NC(=O)[C@H]2NC(=O)[C@H](CC(C)C)NC(=O)[C@H]([C@@H](C)O)NC(=O)[C@H](CC(=O)O)NC(=O)[C@H](CO)NC(=O)[C@H](CCCNC(=N)N)N(C)C(=O)[C@@H](NC(C)=O)C(C)(C)SSC2(C)C)C(N)=O)C(C)(C)SSC1(C)C` [compound 44] (I: Ac-[Pen][NMeR]SDTL[Pen][1Nal]E[dNMeK]-NH2 / II: Ac-[Pen][NMeR]SDTL[Pen][1Nal]E[dNMeK]-NH2; disulfide I:1-I:7, II:1-II:7; linker I:10-II:10 via Diglycolyl), the IC50 is under 10 nM. Consider `CC(=O)N[C@@H]1C(=O)N(C)[C@@H](CCCNC(=N)N)C(=O)N[C@@H](CO)C(=O)N[C@@H](CC(=O)O)C(=O)N[C@@H]([C@@H](C)O)C(=O)N[C@@H](CC(C)C)C(=O)N[C@H](C(=O)N[C@@H](Cc2c[nH]c3ccccc23)C(=O)N[C@@H](CCC(=O)O)C(=O)N[C@H](CCCCNC(=O)COCC(=O)NCCCC[C@@H](NC(=O)[C@H](CCC(=O)O)NC(=O)[C@H](Cc2c[nH]c3ccccc23)NC(=O)[C@H]2NC(=O)[C@H](CC(C)C)NC(=O)[C@H]([C@@H](C)O)NC(=O)[C@H](CC(=O)O)NC(=O)[C@H](CO)NC(=O)[C@H](CCCNC(=N)N)N(C)C(=O)[C@@H](NC(C)=O)C(C)(C)SSC2(C)C)C(N)=O)C(N)=O)C(C)(C)SSC1(C)C` [compound 67] (I: Ac-[Pen][NMeR]SDTL[Pen]WE[dK]-NH2 / II: Ac-[Pen][NMeR]SDTL[Pen]WE[dK]-NH2; disulfide I:1-I:7, II:1-II:7; linker I:10-II:10 via Diglycolyl), for which the IC50 was under 10 nM. On the same count and under the same terms, as for `CC(=O)N[C@@H]1C(=O)N(C)[C@@H](CCCNC(=N)N)C(=O)N[C@@H](CO)C(=O)N[C@@H](CC(=O)O)C(=O)N[C@@H]([C@@H](C)O)C(=O)N[C@@H](CC(C)C)C(=O)N[C@H](C(=O)N[C@@H](Cc2c[nH]c3ccccc23)C(=O)N[C@@H](CCC(=O)O)C(=O)N[C@H](CCCCNC(=O)COCC(=O)NCCCC[C@@H](NC(=O)[C@H](CCC(=O)O)NC(=O)[C@H](Cc2c[nH]c3ccccc23)NC(=O)[C@H]2NC(=O)[C@H](CC(C)C)NC(=O)[C@H]([C@@H](C)O)NC(=O)[C@H](CC(=O)O)NC(=O)[C@H](CO)NC(=O)[C@H](CCCNC(=N)N)N(C)C(=O)[C@@H](NC(C)=O)C(C)(C)SSC2(C)C)C(=O)O)C(=O)O)C(C)(C)SSC1(C)C` [compound 78] (I: Ac-[Pen][NMeR]SDTL[Pen]WE[dK]-OH / II: Ac-[Pen][NMeR]SDTL[Pen]WE[dK]-OH; disulfide I:1-I:7, II:1-II:7; linker I:10-II:10 via Diglycolyl), the figure is under 10 nM; as for `CC(=O)N[C@@H]1C(=O)N(C)[C@@H](CCCNC(=N)N)C(=O)N[C@@H](CO)C(=O)N[C@@H](CC(=O)O)C(=O)N[C@@H]([C@@H](C)O)C(=O)N[C@@H](CC(C)C)C(=O)N[C@H](C(=O)N[C@@H](Cc2ccc(C(=O)O)cc2)C(=O)N[C@@H](CCC(=O)O)CC(=O)N(C)[C@@H](CCCCNC(=O)COCC(=O)NCCCC[C@@H](C(N)=O)N(C)C(=O)C[C@H](CCC(=O)O)NC(=O)[C@H](Cc2ccc(C(=O)O)cc2)NC(=O)[C@H]2NC(=O)[C@H](CC(C)C)NC(=O)[C@H]([C@@H](C)O)NC(=O)[C@H](CC(=O)O)NC(=O)[C@H](CO)NC(=O)[C@H](CCCNC(=N)N)N(C)C(=O)[C@@H](NC(C)=O)C(C)(C)SSC2(C)C)C(N)=O)C(C)(C)SSC1(C)C` [compound 148] (I: Ac-[Pen][NMeR]SDTL[Pen][Phe(4-COOH)][β3hE][NMeK]-NH2 / II: Ac-[Pen][NMeR]SDTL[Pen][Phe(4-COOH)][β3hE][NMeK]-NH2; disulfide I:1-I:7, II:1-II:7; linker I:10-II:10 via Diglycolyl), under 10 nM. On the same count and under the same terms, the result for `CC(=O)N[C@@H]1C(=O)N(C)[C@@H](CCCNC(=N)N)C(=O)N[C@@H](CO)C(=O)N[C@@H](CC(=O)O)C(=O)N[C@@H]([C@@H](C)O)C(=O)N[C@@H](CC(C)C)C(=O)N[C@H](C(=O)N[C@@H](Cc2ccc(-c3ccccc3)cc2)C(=O)N[C@@H](CCC(=O)O)CC(=O)N(C)[C@@H](CCCCNC(=O)COCC(=O)NCCCC[C@@H](C(N)=O)N(C)C(=O)C[C@H](CCC(=O)O)NC(=O)[C@H](Cc2ccc(-c3ccccc3)cc2)NC(=O)[C@H]2NC(=O)[C@H](CC(C)C)NC(=O)[C@H]([C@@H](C)O)NC(=O)[C@H](CC(=O)O)NC(=O)[C@H](CO)NC(=O)[C@H](CCCNC(=N)N)N(C)C(=O)[C@@H](NC(C)=O)C(C)(C)SSC2(C)C)C(N)=O)C(C)(C)SSC1(C)C` [compound 150] (I: Ac-[Pen][NMeR]SDTL[Pen][Bip][β3hE][NMeK]-NH2 / II: Ac-[Pen][NMeR]SDTL[Pen][Bip][β3hE][NMeK]-NH2; disulfide I:1-I:7, II:1-II:7; linker I:10-II:10 via Diglycolyl) reads under 10 nM; that for `CC(=O)N[C@@H]1C(=O)N(C)[C@@H](CCCNC(=N)N)C(=O)N[C@@H](CO)C(=O)N[C@@H](CC(=O)O)C(=O)N[C@@H]([C@@H](C)O)C(=O)N[C@@H](CC(C)C)C(=O)N[C@H](C(=O)N[C@@H](Cc2ccc(C(C)(C)C)cc2)C(=O)N[C@@H](CCC(=O)O)CC(=O)N[C@H](CCCCN)C(N)=O)C(C)(C)SSC1(C)C` [compound 153] (Ac-[Pen][NMeR]SDTL[Pen][Phe(4-tBu)][β3hE][dK]-NH2; disulfide 1-7), 10 to 25 nM.

Staying with this assay, now noted: Table 4-B; read-out: Cell Adhesion α4β7 Mouse IC50.
Consider `CC(=O)N[C@@H]1C(=O)N(C)[C@@H](CCCNC(=N)N)C(=O)N[C@@H](CO)C(=O)N[C@@H](CC(=O)O)C(=O)N[C@@H]([C@@H](C)O)C(=O)N[C@@H](CC(C)C)C(=O)N[C@H](C(=O)N[C@@H](Cc2c[nH]c3ccccc23)C(=O)N[C@H](CCC(=O)O)C(=O)N[C@H](CCCCNC(=O)COCC(=O)NCCCC[C@@H](NC(=O)[C@@H](CCC(=O)O)NC(=O)[C@H](Cc2c[nH]c3ccccc23)NC(=O)[C@H]2NC(=O)[C@H](CC(C)C)NC(=O)[C@H]([C@@H](C)O)NC(=O)[C@H](CC(=O)O)NC(=O)[C@H](CO)NC(=O)[C@H](CCCNC(=N)N)N(C)C(=O)[C@@H](NC(C)=O)C(C)(C)SSC2(C)C)C(N)=O)C(N)=O)C(C)(C)SSC1(C)C` [compound 211, (Ac-Pen-N-Me-R-S-D-T-L-Pen-W-e-k-NH2)2-DIG] (I: Ac-[Pen][NMeR]SDTL[Pen]W[dE][dK]-NH2 / II: Ac-[Pen][NMeR]SDTL[Pen]W[dE][dK]-NH2; disulfide I:1-I:7, II:1-II:7 (inferred); linker I:10-II:10 via Diglycolyl (inferred)), for which the IC50 came to 7.3 nM. As for `CC(=O)N[C@@H]1C(=O)N(C)[C@@H](CCCNC(=N)N)C(=O)N[C@@H](CO)C(=O)N[C@@H](CC(=O)O)C(=O)N[C@@H]([C@@H](C)O)C(=O)N[C@@H](CC(C)C)C(=O)N[C@H](C(=O)N[C@@H](Cc2c[nH]c3ccccc23)C(=O)N[C@@H](CCC(=O)O)CC(=O)N[C@H](CCCCNC(=O)COCC(=O)NCCCC[C@@H](NC(=O)C[C@H](CCC(=O)O)NC(=O)[C@H](Cc2c[nH]c3ccccc23)NC(=O)[C@H]2NC(=O)[C@H](CC(C)C)NC(=O)[C@H]([C@@H](C)O)NC(=O)[C@H](CC(=O)O)NC(=O)[C@H](CO)NC(=O)[C@H](CCCNC(=N)N)N(C)C(=O)[C@@H](NC(C)=O)C(C)(C)SSC2(C)C)C(N)=O)C(N)=O)C(C)(C)SSC1(C)C` [compound 213, [Ac-Pen-(N-Me-Arg)-Ser-Asp-Thr-Leu-Pen-Trp-(β-homoGlu)-(D-Lys)-NH2]2-DIG] (I: Ac-[Pen][NMeR]SDTL[Pen]W[β3hE][dK]-NH2 / II: Ac-[Pen][NMeR]SDTL[Pen]W[β3hE][dK]-NH2; disulfide I:1-I:7, II:1-II:7; linker I:10-II:10 via Diglycolyl), the half-maximal inhibitory concentration (IC50) is 4.2 nM.

Values taken from patent US9809623B2, “α4β7 peptide monomer and dimer antagonists” (Protagonist Therapeutics, Inc., priority 2014, dated 2017).
